Results taken from ChEMBL document CHEMBL3286343, “Fused Thiazin-3-ones as KCa3.1 Inhibitors” (ACS Med Chem Lett, 2014).
pIC50: −log10 of the molar value.

Target: Intermediate conductance calcium-activated potassium channel protein 4 (Homo sapiens, UniProt O15554)
Test: Inhibition of human KCa3.1 overexpressed in HEK293 cells assessed as thallium influx preincubated for 15 mins followed by thallium/ionomycin addition measured for 50 secs by FLIPR assay
Assay type: cell-based

Chain of Intermediate conductance calcium-activated potassium channel protein 4 (O15554 whole entry): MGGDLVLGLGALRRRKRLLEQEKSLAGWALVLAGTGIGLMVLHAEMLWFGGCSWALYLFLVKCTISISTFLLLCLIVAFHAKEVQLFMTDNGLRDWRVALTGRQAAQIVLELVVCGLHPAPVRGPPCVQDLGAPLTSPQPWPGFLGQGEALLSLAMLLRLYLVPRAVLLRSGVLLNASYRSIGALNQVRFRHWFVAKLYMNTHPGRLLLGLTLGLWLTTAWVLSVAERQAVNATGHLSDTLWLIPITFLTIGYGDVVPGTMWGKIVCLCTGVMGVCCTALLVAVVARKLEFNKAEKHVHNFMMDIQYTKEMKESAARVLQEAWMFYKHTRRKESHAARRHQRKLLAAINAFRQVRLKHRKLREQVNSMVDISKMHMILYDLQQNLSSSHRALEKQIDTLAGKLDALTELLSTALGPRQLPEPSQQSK

pIC50	SMILES
7.41	CC(c1ccc(F)c(OC(F)(F)F)c1)N1C(=O)CS(=O)(=O)c2ccsc21 (configuration not stated)
7.22	CC(c1ccc(F)c(OC(F)(F)F)c1)N1C(=O)CSc2ncsc21 (configuration not stated)
